Laboratory results: ChEMBL document CHEMBL1201862, “PubChem BioAssay data set” (2004)
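These data come from cells grown in 96-well plates and exposed to compound for 48 hours at five concentrations. GI50 is the concentration that inhibits growth by half.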 Active and inactive are the calls of the source. Rule as the data show it: active = GI50 up to about 1.1 µM and inactive = higher.

Key:
Assay in all cases: DTP human tumour cell line panel, 48 h
[1] = tested on: MDA-MB-435
[2] = tested on: SF-295
[3] = tested on: SNB-19
[4] = tested on: SK-MEL-28
[5] = tested on: OVCAR-3
[6] = tested on: HCC 2998
[7] = tested on: HCT-116
[8] = tested on: 786-0
[9] = tested on: COLO 205
[10] = tested on: HOP-92
[11] = tested on: UO-31
[12] = tested on: SW-620
[13] = tested on: HT-29
[14] = tested on: BT-549
[15] = tested on: IGROV-1
[16] = tested on: SR
[17] = tested on: Malme-3M
[18] = tested on: PC-3
[19] = tested on: Hs-578T

COc1cc(OC)c2c3c(OC)cc(OC)c4c(=O)c(O)c(C[C@@H](C)O)c(c5c(C[C@@H](C)O)c(O)c(=O)c1c25)c43
GI50 [1]: 16.6 µM (inactive)
GI50 [2]: 40.2 µM (inactive)
GI50 [3]: 57.5 µM (inactive)
GI50 [4]: 20.1 µM (inactive)
GI50 [5]: 1.02 µM (active)
GI50 [6]: 16.3 µM (inactive)
GI50 [7]: 16 µM (inactive)
GI50 [8]: 19.1 µM (inactive)
GI50 [9]: 3.72 µM (inactive)
GI50 [10]: 14.5 µM (inactive)
GI50 [11]: 30.7 µM (inactive)
GI50 [12]: 15.5 µM (inactive)
GI50 [13]: 18.6 µM (inactive)
GI50 [14]: 18.7 µM (inactive)
GI50 [15]: 16.6 µM (inactive)

CCOC(=O)C1=C(C)N(NC(=O)Nc2ccccc2)C(=O)C1=P(c1ccccc1)(c1ccccc1)c1ccccc1
GI50 [2]: 48.4 µM (inactive)
GI50 [3]: > 100 µM (inactive)
GI50 [5]: 36.5 µM (inactive)
GI50 [6]: 47.2 µM (inactive)
GI50 [7]: 39.1 µM (inactive)
GI50 [8]: 63 µM (inactive)
GI50 [9]: 25.3 µM (inactive)
GI50 [10]: 31 µM (inactive)
GI50 [16]: 16.9 µM (inactive)
GI50 [11]: 74.6 µM (inactive)
GI50 [12]: 31 µM (inactive)
GI50 [17]: 36.2 µM (inactive)
GI50 [13]: 52.2 µM (inactive)
GI50 [15]: 29.6 µM (inactive)

CC(=O)[C@H]1[C@@H](OCc2ccccc2)O[N+]([O-])=C(C)[C@@H]1c1ccccc1
GI50 [1]: 45 µM (inactive)
GI50 [2]: 75.2 µM (inactive)
GI50 [3]: 97.3 µM (inactive)
GI50 [4]: 27.2 µM (inactive)
GI50 [5]: 24.7 µM (inactive)
GI50 [6]: > 100 µM (inactive)
GI50 [8]: 17.6 µM (inactive)
GI50 [18]: 36.1 µM (inactive)
GI50 [9]: 42.7 µM (inactive)
GI50 [10]: 24.8 µM (inactive)
GI50 [16]: 19.2 µM (inactive)
GI50 [11]: 20.8 µM (inactive)
GI50 [12]: 17.4 µM (inactive)
GI50 [17]: 26.4 µM (inactive)
GI50 [13]: 19.6 µM (inactive)
GI50 [15]: 35.8 µM (inactive)
GI50 [19]: 19.9 µM (inactive)

O=C(NCc1ccccc1)c1nn[nH]c1O
GI50 [1]: > 100 µM (inactive)
GI50 [2]: > 100 µM (inactive)
GI50 [3]: > 100 µM (inactive)
GI50 [4]: > 100 µM (inactive)
GI50 [5]: > 100 µM (inactive)
GI50 [6]: > 100 µM (inactive)
GI50 [7]: > 100 µM (inactive)
GI50 [8]: > 100 µM (inactive)
GI50 [18]: > 100 µM (inactive)
GI50 [9]: > 100 µM (inactive)
GI50 [11]: > 100 µM (inactive)
GI50 [12]: > 100 µM (inactive)
GI50 [17]: > 100 µM (inactive)
GI50 [13]: > 100 µM (inactive)
GI50 [14]: > 100 µM (inactive)
GI50 [15]: > 100 µM (inactive)
GI50 [19]: > 100 µM (inactive)
